In patent US5298502A, “Method and composition for photodynamic treatment and detection of tumors” (priority 1991, dated 1994):

Legend:
[1] = test system: DBA/2 Ha mice with SMT-F subcutaneous tumors; experiment: Proto IX content of tissues of tumor-bearing mice fed the agent (Example 6); assay type: in vivo
Protocol: In this Example the enzyme-inhibiting agents were added to the feed of tumor-bearing mice; for some of the mice, used as a control, no agent was added to the feed. The mice were then sacrificed and their kidneys, intestines, adrenal glands, liver and tumor were removed and analyzed for their content of Proto IX. The following enzyme-inhibiting agents were employed: [drawing 10]
More particularly, the mice were DBA/2 Ha mice which had been injected with SMT-F subcutaneous tumors on Day 0 in the right shoulder. The mice, individually housed, received untreated Purina Rodent Chow 5001 Mash on Day 1; thereafter on Days 2 through 10 the mice received the same Mash treated with 2000 ppm of the inhibiting agent being tested (or, for the controls, the same untreated Mash). The treatment of the Mash was effected by blending it with a small amount of an acetone solution of the agent to be tested. The mice were then sacrificed on Day 10, except for the mouse treated with the agent designated as 6j; the latter was sacrificed on Day 7. The tissues were refrigerated at 4° C. overnight, then blotted dry, and the fresh weight of each tissue sample was recorded. The tissues were then homogenized in 5 mL, or lo mL in the cases of intestines and liver, of acetone-0.1 N NH4 OH (9:I, v/v). The homogenates were then centrifuged at 1500 g and the supernatants were analyzed on a SPEX FAII2 spectrofluorometer; excitation 400 nm, emission 630 nm wavelengths, the optima for Proto IX. Proto IX accumulation was determined as CPS (fluorescent counts per second emitted) per gram of tissue. The results are tabulated below (results are averages for two mice for each treatment, except for treatments with agents 6f, 6h, 6i and 6j in each of which only one mouse was treated): […]

[2] = LD50, single oral dose, rats; settings: rat, in vivo, single oral dose in corn oil containing 15% of the agent, 14-day period
[3] = LD50, single oral dose, mice; settings: mouse, in vivo, single oral dose in corn oil and 5% of the agent, 14-day period
HeLa cells = experiment: Proto IX production in HeLa cells, extract of cells alone (Example 7); assay type: cell-based; settings: Homo sapiens, 100 uM agent, first formula (background-subtracted), read-out: increase in the amount of Proto IX relative to the control
Protocol: In a series of experiments along the lines of Examples 1 and 2, cultures of HeLa cells were incubated in the presence of 100 uM of various treating agents, listed below. The percentage given, next to each treating agent, indicates the increase in the amount of Proto IX produced in the presence of that treating agent relative to the amount produced by the control in the same experiment.
As in Examples 1 and 2, the data for this Example 7 were based on measurements of fluorescence (e.g. in counts per second, "cps"). In this Example, however, the measurements were made on an extract of the cells alone (in contrast to Examples 1 and 2 in which the disrupted cells and culture medium together were extracted), the fluorometric medium was the one described in Example 5 (containing 1% Tween-20, 50 mM Tris-HCl, 1 mM EDTA and 1 mM dithioerythritol, pH 8.5), and a cps measurement of the fluorometric medium per se was also made. In calculating the foregoing data for this Example, the following formula was used to calculate the percentage increases: [formula] where Ca is the counts per second for the sample resulting from treatment with the agent, Cc is the counts per second for the control sample, and Cm is the counts per second for the fluorometric medium per se (i.e. the background fluoroescence). On reviewing the data it was observed that Cc -Cm for this set of experiments was […] compared to Cm; for instance, individual measured values were 49025 and 52069 for Cc and 4295 for Cm. […] Accordingly, the data were recalculated using the formula: [formula] with the following results: 6a 336%; 5b 148%; 6c 154%; 6d 510%; 6e 320%; 6f 280%; 6g 329%; 6h 178%; 6i 171%; 6j 185%; 7a 118%; 7b 142%; 7c 103%; 7d 128%; 7e 173%; 7f 118%; 7q 155%; 7h 118%.

SMT-F tumor = experiment: Photodynamic treatment of SMT-F tumor in mice fed the agent (Example 10); assay type: in vivo, female DBA/2 mice
Text: In this Example preliminary routine dosage experiments, using agent 6c of Example 6, were made, using female DBA/2 mice, four to six weeks old (14-18 grams). For tumor implantation into these animals, SMT-F tumor was aseptically removed from donor animals and cut into 1 mm^3 fragments. These tumor pieces were placed in Hank's Balanced Salt Solution containing penicillin and streptomycin. Tumor pieces were implanted via a torchar into the center of the right flank of shaved mice. […] The skin covering and surrounding the tumor was shaved and depilated two to three hours prior to light treatment.
The light treatment employed red light centered on 630 nm obtained from 1000 watt Xenon arc lamp system (Oriel Corporation) using a condenser which focused the light into a trifurcated fiberoptic bundle. A collimating lens was placed at the end of each fiberoptic in order to focus the image of the fiberoptic bundle on the treatment area: a spot of […] (1.33 cm^2). The design of the fiberoptic bundle ensured uniform distribution of light over this area. The output spectrum of the arc lamp was tuned to a peak intensity of 630 nm (602-670 nm range) using a water filter, a heat reflecting filter, and a 610 nm long pass filter. Light was delivered at a power density of 135 mW/cm^2. The possibility of tissue hyperthermia induced by this power density was evaluated by placing thermocouples at selected depths into the tumor during treatment, and measuring any temperature rise. No increase in tumor temperature greater than 2.4° C. (final temperature of 37.5°C.) was observed. During the light treatment the mice were restrained without anesthesia in specially designed holders and the tumors and surrounding skin were exposed to light to different degrees, from 0 to 600 J/cm^2. […]
In the course of the experiment the porphyrin fluorescence at 650 nm of the tumors (on exposure to fluorescing-inducing light at 630 nm) was measured with a fluorescence photometer.

[4] = 2000 ppm in feed Days 2-10, sacrificed Day 10 (6j Day 7)

**Q.** What does the source list for `Cc1nn(-c2cc(NS(C)(=O)=O)c(Cl)cc2Cl)c(=O)n1C(F)F` [Agent 6c]?
**A.** concentration of Proto IX in tissue, Adrenal ([1]; 2000 ppm in feed): 126 ug of Proto IX per gram of tis; concentration of Proto IX in tissue, Intestine ([1]; 2000 ppm in feed): 91 ug of Proto IX per gram of tis; concentration of Proto IX in tissue, Kidneys ([1]; 2000 ppm in feed): 148 ug of Proto IX per gram of tis; concentration of Proto IX in tissue, Liver ([1]; 2000 ppm in feed): 25 ug of Proto IX per gram of tis; concentration of Proto IX in tissue, Tumor ([1]; 2000 ppm in feed): 131 ug of Proto IX per gram of tis; Proto IX Mean Cps per gram, Adrenal [1, 4]: 13790 Cps per gram × 10^3; Proto IX Mean Cps per gram, Kidneys [1, 4]: 16186 Cps per gram × 10^3; Proto IX Mean Cps per gram, Liver [1, 4]: 2739 Cps per gram × 10^3; Proto IX Mean Cps per gram, Tumor [1, 4]: 14336 Cps per gram × 10^3; Weight of Tumor as excised [1, 4]: 157 mg; Proto IX Mean Cps per gram, Intestine ([1]; 2000 ppm in feed, samples diluted with 3 parts basic acetone to one part sample): 9937 Cps per gram × 10^3; LD50 at 336 h [2]: > 2600 mg/kg; LD50 at 336 h [3]: > 700 mg/kg; activation at 100 µM (HeLa cells): 297%; mice with tumors cured (tumor free at 35 days post-treatment) (SMT-F tumor; 4000 ppm in feed for three days, 450 J/cm^2 of light): about 33%; porphyrin fluorescence of the tumors at 650 nm (SMT-F tumor; agent in feed): All animals showed an increase in tumor fluorescence; tumor regrowth between 35 and 91 days post-treatment (SMT-F tumor; mouse, in vivo): No tumor regrowth
